Assay results as given in PMC3781062 (PLoS ONE, 2013).
Where a chain is given by its changes, count along the chain named. Where “and” joins values, the source holds several entries; their conditions need not be identical. Equal values may be shown once.

Columns and labels:
CYP1B1 [1] = molecular target: T1, CYP1B1 (Homo sapiens, UniProt Q16678, L432V); assay: Inhibition of CYP1B1-dependent EROD activity, E. coli membranes co-expressing CYP1B1 and CPR; assay type: biochemical
T1 construct: made in house; host or cells: E. coli JM109
T1 sequence (Q16678 1-543 L432V): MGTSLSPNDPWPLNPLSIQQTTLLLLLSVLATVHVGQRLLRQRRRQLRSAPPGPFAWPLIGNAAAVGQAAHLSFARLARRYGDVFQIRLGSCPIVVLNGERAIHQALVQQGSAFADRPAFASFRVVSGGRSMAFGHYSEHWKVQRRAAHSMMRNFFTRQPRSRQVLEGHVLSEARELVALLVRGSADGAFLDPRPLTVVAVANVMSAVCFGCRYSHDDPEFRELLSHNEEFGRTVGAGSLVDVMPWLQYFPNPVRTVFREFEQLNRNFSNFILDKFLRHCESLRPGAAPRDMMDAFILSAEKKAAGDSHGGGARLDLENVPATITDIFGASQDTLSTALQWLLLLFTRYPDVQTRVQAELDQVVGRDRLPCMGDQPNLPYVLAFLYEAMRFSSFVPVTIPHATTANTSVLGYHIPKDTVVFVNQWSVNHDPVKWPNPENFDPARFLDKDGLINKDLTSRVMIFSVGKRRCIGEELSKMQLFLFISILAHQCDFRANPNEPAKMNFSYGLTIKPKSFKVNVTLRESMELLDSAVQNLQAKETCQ
Procedure: (§1) EROD activity was determined as previously described, but modified in 96-well plate format with quadruplicate replicates, using a Fluoroskan fluorescence reader (Labsystems, Cambridge, UK). […] Calibration curves were constructed with authentic resorufin standards and linear regression analysis used to calculate the amount of resorufin formed in each test sample. Enzyme kinetics for CYP1B1-catalysed EROD activity were determined at substrate concentrations from 0.002 to 2 µM. Apparent Km and Vmax values were estimated by non-linear regression analysis (GraFit software program, UK) of the substrate concentration [S]-enzyme activity [V], fitting data to a Michaelis-Menten model.

CYP1B1*1 = CYP1B1*1 (Homo sapiens, UniProt Q16678); assay: Inhibition of EROD activity of CYP1B1 allelic variant co-expressed with CPR; assay type: biochemical; settings: IC50 against CYP1B1-dependent EROD activity, mean ± SD of triplicate determinations
Procedure: (§2) Construction of CYP1B1 and CPR expression plasmids has been described previously. The CYP1B1 alleles CYP1B1*1, CYP1B1*3 and CYP1B1*4 were co-expressed with CPR in E. coli JM109 cells and membranes prepared as described previously. P450 content was determined spectrophotometrically, and CPR activity estimated by cytochrome c reduction. […] Solubilised protein lysates or human liver microsomes were separated by SDS-PAGE, transferred onto Hybond-ECL nitrocellulose membranes (Amersham, UK) and probed with CYP1B1 (BD Gentest, Woburn, MA) and CPR antibodies, as previously described.
as §1

CYP1B1*3 = CYP1B1*3 (Homo sapiens, UniProt Q16678, form not given); assay: as above; assay type: biochemical; settings: probe 7-ethoxyresorufin (EROD)
Procedure: as §2, §1

CYP1B1*4 = molecular target: T2, CYP1B1*4 (Homo sapiens, UniProt Q16678, L432V/N453S); assay: as above; assay type: biochemical; settings: mean ± SD of triplicate determinations, read-out: IC50 against CYP1B1-dependent EROD activity (converted)
T2 construct: made in house; host or cells: E. coli JM109
T2 sequence (Q16678 1-543 L432V/N453S): T1 sequence (Q16678 1-543 L432V) with N453S
Procedure: as §2, §1

CHO cells = assay: PUVA cytotoxicity, neutral red uptake assay
Procedure: (§3) CHO cell lines stably over-expressing CYP1B1 and CPR were generated as previously described. CHO cells were maintained at 37°C/5% CO2 in Dulbecco’s Modified Eagle’s medium (DMEM) supplemented with 10% fetal bovine serum (FBS), 100 U/ml penicillin, 100 µg/ml streptomycin, 1 U/ml each of hypoxanthine and thymine (Invitrogen, Paisley-UK). Similar culture conditions, with the addition of G-418 (400 µg/ml), were used for CHO cells stably expressing CPR (CHO-CPR). CHO cells stably co-expressing CYP1B1 and CPR (CHO-1B1/CPR) were maintained at 37°C/5% CO2, but in hypoxanthine and thymine-free DMEM supplemented with 10% dialysed FBS and the appropriate selection (0.3 µM MTX and 400 µg/ml G-418). HaCaT keratinocytes were grown to 80% confluence in DMEM supplemented with 10% fetal bovine serum (FBS), 100 U/ml penicillin, 100 µg/ml streptomycin and 2 mM glutamine. Cells were harvested and microsomes prepared as described previously. HaCaT cell microsomes and microsomes from human skin biopsies obtained from peri-lesional skin from psoriasis patients, [13] were used to investigate functional CYP1B1 expression using EROD assays.
(§4) To investigate CHO cell sensitivity to UVA and PUVA, actively dividing cells (10000 cells/well) were seeded in 96-well plates (Iwaki, Japan) in quadruplicates in 200 µl culture medium and allowed to grow for 18–20 h. Cells were irradiated at room temperature with a UVA source (2×6 ft Cosmolux 15500/100 W, 1.7 mW/cm^2 (320–400 nm; λmax = 365 nm), Germany) through a 4 mm thick window glass filter at multiple UVA doses (0, 1.5, 4.0 and 7.5 J/cm^2), monitoring irradiance with a Waldmann UV meter equipped with UVA detector. Control samples were kept in the dark under the same conditions. […] Control samples were pre-incubated with solvent and kept in the dark under the same conditions. After each treatment, fresh culture medium was added and cells returned to an incubator at 37°C/5%CO2 for 24 h. Cell viability was assessed using neutral red uptake assays; quadruplicate replicates of each treatment were performed, and each experiment repeated twice. PUVA cytotoxicity data was assessed by non-linear regression analysis for dose-response curves (IC50) fitting (GraFit software program, UK) and unpaired Student’s t-test (Statview 4.1 software).

CHO-CPR cells = assay: PUVA cytotoxicity, neutral red uptake assay
Procedure: as §3, §4

human liver microsomes = assay: 8-MOP metabolism (substrate depletion) in human liver microsomes; assay type: in vitro ADME; settings: α-naphthoflavone 5 µM
Procedure: (§5) After 3 min 37°C pre-incubation, reactions were initiated by 40 µl 5 mM NADPH containing 30 mM glutathione (GSH) in 50 mM PB (pH 7.4). Reactions were incubated for 10 min in a shaking water bath at 37°C, terminated by the addition of 100 µl ice-cold methanol containing 3% perchloric acid, and placed on ice for 10 min. Zero-time controls were terminated before the addition of P450 membranes; no-NADPH control reactions were initiated with 20 µl 50 mM PB (pH 7.4) containing 30 mM GSH. Samples were vortexed for 1 min, centrifuged at 12 000 rpm for 5 min, supernatants collected and analysed by HPLC analysis [28].

CYP1A1 = molecular target: T3, CYP1A1 (Homo sapiens, UniProt P04798); settings: α-naphthoflavone 5 µM; recombinant CYP1A1
T3 sequence (P04798 1-512): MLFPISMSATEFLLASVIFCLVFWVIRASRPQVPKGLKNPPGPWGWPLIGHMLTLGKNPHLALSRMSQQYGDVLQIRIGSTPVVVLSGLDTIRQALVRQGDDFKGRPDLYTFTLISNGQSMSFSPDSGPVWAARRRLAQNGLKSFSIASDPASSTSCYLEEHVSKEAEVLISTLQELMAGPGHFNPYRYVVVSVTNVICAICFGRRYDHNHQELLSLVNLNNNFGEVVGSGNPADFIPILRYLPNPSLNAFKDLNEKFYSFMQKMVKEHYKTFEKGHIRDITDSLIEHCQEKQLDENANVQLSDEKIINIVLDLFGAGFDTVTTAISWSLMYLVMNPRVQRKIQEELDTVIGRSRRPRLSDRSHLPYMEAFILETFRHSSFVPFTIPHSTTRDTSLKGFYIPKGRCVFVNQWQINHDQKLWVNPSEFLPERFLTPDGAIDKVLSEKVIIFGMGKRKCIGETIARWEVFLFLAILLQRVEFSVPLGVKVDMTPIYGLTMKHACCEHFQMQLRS
Procedure: as §5

CYP1B1 [2] = settings: α-naphthoflavone 5 µM; recombinant CYP1B1
Procedure: as §5

Structure (SMILES)	IC50 (CYP1B1 [1]; 7-ethoxyresorufin at Km concentration, estimated)	Mode of inhibition of CYP1B1 (CYP1B1 [1]; Lineweaver-Burk plots, six 8-MOP and four 7-ethoxyresorufin concentrations)	Ki (CYP1B1 [1]; n = 3)	IC50 (CYP1B1*1)	IC50 at 3 min (CYP1B1*3)	IC50 (CYP1B1*4)	Cytotoxicity of 8-MOP alone (no UVA) (CHO cells; CHO cells, 8-MOP 0–5 µM, dark)	IC50 (CHO cells; Cricetulus griseus, CHO, light or radiation study, read-out: IC50 for 8-MOP in the presence of UVA)	Cytotoxicity of 8-MOP alone (no UVA) (CHO-CPR cells; CHO-CPR cells, 8-MOP alone)	IC50 (CHO-CPR cells; Cricetulus griseus, light or radiation study, read-out: IC50 for 8-MOP in the presence of UVA)	8-MOP metabolism in presence of inhibitor (human liver microsomes)	8-MOP metabolism in presence of inhibitor (CYP1A1)	8-MOP metabolism in presence of inhibitor (CYP1B1 [2])
COc1c2occc2cc2ccc(=O)oc12 [8-MOP, 8-methoxypsoralen]	2000 ± 100 nM	mixed inhibition	3580 ± 1000 nM	1710 nM and 1700 nM	0.326 µg/mL and 1.5 µM	601 nM and 600 nM	no significant cytotoxicity	0.461 µg/mL and 2.13 µM	not cytotoxic	0.54 µg/mL and 2.5 µM			
O=c1cc(-c2ccccc2)oc2c1ccc1ccccc12 [α-naphthoflavone]											59 % of control levels	53 % of control levels	62 % of control levels
